Our source for the EC50 values is PMC10692101, “3-(4-Hydroxy-3-methoxyphenyl) propionic acid contributes to improved hepatic lipid metabolism via GPR41” (Scientific Reports, 2023).

Structures are written as SMILES. pEC50: −log10 of the molar value.

Assay [1] has as its target T1, GPR41 (Mus musculus, UniProt Q3UFD7).
T1 construct: gene Ffar3; mouse GPR41 cDNA in pcDNA5/FRT/TO, expressed in Flp-In T-Rex HEK 293 cells
T1 sequence (Q3UFD7 1-319): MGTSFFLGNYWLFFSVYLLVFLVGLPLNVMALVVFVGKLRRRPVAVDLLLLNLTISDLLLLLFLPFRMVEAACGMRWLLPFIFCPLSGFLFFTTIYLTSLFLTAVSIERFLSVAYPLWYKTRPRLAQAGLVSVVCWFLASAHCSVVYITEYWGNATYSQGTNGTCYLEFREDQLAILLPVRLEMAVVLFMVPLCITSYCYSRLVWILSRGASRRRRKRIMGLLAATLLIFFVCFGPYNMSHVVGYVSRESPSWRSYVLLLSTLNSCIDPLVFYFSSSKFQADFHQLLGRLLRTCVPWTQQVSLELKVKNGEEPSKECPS
Briefly: inhibition of forskolin-induced cAMP in doxycycline-inducible mouse GPR41 HEK293 cells. The class given is cell-based.

Assay [2] addresses T1, GPR41. Briefly: inhibition of forskolin-induced cAMP in doxycycline-inducible mouse GPR41 HEK293 cells; Dox(-) controls inactive. The class given is cell-based.

As usually defined, the pEC50 is −log10 of the EC50, conventionally taken in molar units. Higher therefore signals a small EC50. In the case of `COc1cc(/C=C/C(=O)O)ccc1O` [HMCA, 4-hydroxy-3-methoxycinnamic acid], the pEC50 at GPR41 [1] is 2.25.
Consider `COc1cc(CCC(=O)O)ccc1O` [HMPA, 3-(4-hydroxy-3-methoxyphenyl) propionic acid], for which the pEC50 at GPR41 [2] is 2.63.
